Experimental data reported in patent US12304897B2, “15-PGDH inhibitors” (KYORIN PHARMACEUTICAL CO., LTD., priority 2019, dated 2025).

Biological target: recombinant human 15-PGDH (Homo sapiens (Human), UniProt P15428)
Test: 15-PGDH enzyme inhibition test
Type: biochemical
Details: 4 nM recombinant human 15-PGDH, 30 μM PGE2, 1 mM NAD+, fluorescence 340/440 nm after 60 min
Protocol: 15-PGDH Enzyme Inhibition Test
Test compounds and 4 nM recombinant human 15-PGDH (R&D systems) in 50 mM Tris-HCl (pH 8.0) containing 0.01% TWEEN 20 (Sigma) and 0.01% bovine gamma globulin (Sigma) were put into 384 Flat Bottom Black plates (Corning, 3820) and allowed to stand for 12 minutes at room temperature. Then, 30 μM PGE2 (Cayman chemical) and 1 mM NAD^+ (Sigma) were added to start reaction. Sixty minutes after the start of reaction, signals were measured at an excitation wavelength of 340 nm and a fluorescence emission wavelength of 440 nm using Synergy 2 (BioTeck). The intensity of the fluorescent signal obtained when an assay buffer was added in place of the test compounds and NAD^+ was defined as 100% and that obtained with the addition of NAD^+ was defined as 0%.

Chain of recombinant human 15-PGDH (P15428 whole entry): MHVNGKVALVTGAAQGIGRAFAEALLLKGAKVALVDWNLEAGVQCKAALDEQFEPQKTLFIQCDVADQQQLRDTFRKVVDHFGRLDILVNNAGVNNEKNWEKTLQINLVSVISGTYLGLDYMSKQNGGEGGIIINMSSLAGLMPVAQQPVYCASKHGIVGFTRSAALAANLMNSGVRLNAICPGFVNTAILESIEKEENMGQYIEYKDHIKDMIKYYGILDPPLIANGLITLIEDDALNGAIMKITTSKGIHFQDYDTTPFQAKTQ

| Structure (SMILES) | IC50 |
| --- | --- |
| C[C@H]1CCCN(C(=O)c2ccc3c(N4CCc5ncccc5C4)cccc3c2)C1 [compound 2] | < 3 nM |
| Cn1nc2n(c1=O)CCN(c1cccc3cc(C(=O)N4CCC[C@H](C(F)(F)F)C4)ccc13)C2 [compound 3] | < 3 nM |
| O=C(c1ccc2c(N3CCc4ncccc4C3)cccc2c1)N1CCC[C@H](C(F)(F)F)C1 [compound 4] | < 3 nM |
| O=C(c1ccc2c(N3CCc4c(cc[nH]c4=O)C3)cccc2c1)N1CCC(F)(F)CC1 [compound 5] | < 3 nM |
| O=C(c1ccc2c(N3CCn4c(nn(CC(F)F)c4=O)C3)cccc2c1)N1CCCC2CC21 (stereo not shown) [compound 6] | < 3 nM |
| O=C1NC(=O)N2CCN(c3cccc4cc(C(=O)N5CCCCC5)ccc34)CC12 (stereo not shown) [compound 7] | ≥ 10 nM |
| CN1Cc2cc(-c3cccc4cc(C(=O)N5CCCC(C)(C)C5)ccc34)ccc2C1=O [compound 8] | < 3 nM |
| CN1Cc2cc(-c3coc4cc(C(=O)N5CCCCC5)ccc34)ccc2C1=O [compound 9] | < 3 nM |
| O=C(c1ccc2c(N3CCN4C(=O)CCC4C3)cccc2c1)N1CCCCC1 (stereo not shown) [compound 12] | 3 to 10 nM |
| CN1Cc2cc(-c3cccc4cc(C(=O)N5CCCC5)ccc34)cnc2C1=O [compound 14] | < 3 nM |
| Cc1ccc2cc(C(=O)N3CCC(F)(F)CC3)ccc2c1-c1cnc2c(c1)CN(C)C2=O [compound 16] | 3 to 10 nM |
| O=C(c1ccc2c(N3CCn4c(nn(CC(F)F)c4=O)C3)cccc2c1)N1CCCCC1 [compound 19] | < 3 nM |
| Cn1nc2n(c1=O)CCN(c1ncc(F)c3cc(C(=O)N4CCC(F)(F)CC4)ccc13)C2 [compound 20] | 3 to 10 nM |
| Cc1nc2n(n1)CCN(c1cccc3cc(C(=O)N4CCCCC4)ccc13)C2 [compound 21] | < 3 nM |
| COc1nccc2c1CCN(c1cccc3cc(C(=O)N4CCCCC4)ccc13)C2 [compound 22] | 3 to 10 nM |
| O=C(c1ccc2c(N3CCc4c(cc[nH]c4=O)C3)cccc2c1)N1CCC[C@@H](F)C1 [compound 23] | < 3 nM |
| CN1Cc2cc(-c3cccc4cc(C(=O)N5CCC[C@H](C(F)(F)F)C5)ccc34)ccc2C1=O [compound 25] | < 3 nM |
| CC1CC2CN(c3cccc4cc(C(=O)N5CCCCC5)ccc34)CCN2C1=O (stereo not shown) [compound 28] | 3 to 10 nM |
| CN1Cc2cc(-c3cccc4cc(C(=O)N5CCCCC5)cnc34)ccc2C1=O [compound 29] | < 3 nM |
| C[C@H]1CCCN(C(=O)c2ccc3c(-c4ccc5c(=O)[nH]ccc5c4)cccc3c2)C1 [compound 31] | < 3 nM |
| C[C@@H]1CCCN(C(=O)c2ccc3c(N4CCn5c(nn(C)c5=O)C4)cccc3c2)C1 [compound 34] | < 3 nM |

| Structure (SMILES) | IC50 |
| --- | --- |
| C[C@@H]1CCCN(C(=O)c2ccc3c(N4CCc5c(cc[nH]c5=O)C4)cccc3c2)C1 [compound 35] | < 3 nM |
| Cc1cc2ncccc2cc1-c1cccc2cc(C(=O)N3CCC(F)(F)CC3)ccc12 [compound 36] | ≥ 10 nM |
| O=C1NCc2cc(-c3cccc4cc(C(=O)N5CCC(F)(F)CC5)ccc34)ncc21 [compound 39] | < 3 nM |
| C[C@H]1CCCN(C(=O)c2ccc3c(-c4cnc5c(=O)[nH]ccc5c4)cccc3c2)C1 [compound 46] | < 3 nM |
| C[C@H]1CCCN(C(=O)c2ccc3c(-c4cc5cc[nH]c(=O)c5cn4)cccc3c2)C1 [compound 47] | < 3 nM |
| CN1Cc2cc(-c3cccc4cc(C(=O)N5CCC(C(F)(F)F)CC5)ccc34)ccc2C1=O [compound 48] | < 3 nM |
| O=C(c1ccc2c(-c3ccc4c(=O)[nH]ccc4c3)c(F)ccc2c1)N1CCC(F)(F)CC1 [compound 49] | < 3 nM |
| O=C(c1ccc2c(N3CCc4ncccc4C3)cccc2c1)N1CCCCC1 [compound 50] | < 3 nM |
| Cc1nc2c(o1)CCN(c1cccc3cc(C(=O)N4CCCCC4)ccc13)C2 [compound 51] | 3 to 10 nM |
| Cn1cc2c(n1)CCN(c1cccc3cc(C(=O)N4CCCCC4)ccc13)C2 [compound 52] | 3 to 10 nM |
| C[C@H]1CCCN(C(=O)c2ccc3c(N4CCc5c(cc[nH]c5=O)C4)cccc3c2)C1 [compound 60] | < 3 nM |
| O=C(c1ccc2c(N3CCc4c(cc[nH]c4=O)C3)cccc2c1)N1CCCCC1 [compound 62] | < 3 nM |
| CN1Cc2cc(-c3cccc4cc(C(=O)N5CCC[C@@H](F)C5)ccc34)ccc2C1=O [compound 63] | < 3 nM |
| O=C(c1ccc2c(-c3ccc4c(=O)[nH]ccc4c3)cccc2c1)N1CCCCC1 [compound 64] | < 3 nM |
| CN1Cc2cc(-c3cncc4cc(C(=O)N5CCCCC5)ccc34)ccc2C1=O [compound 69] | < 3 nM |
| CN1Cc2cc(-c3cccc4nc(C(=O)N5CCCCC5)ccc34)ccc2C1=O [compound 70] | ≥ 10 nM |
| C[C@H]1CCCN(C(=O)c2ccc3c(-c4cnc5c(c4)CN(C)C5=O)cccc3c2)C1 [compound 72] | < 3 nM |
| Cn1nc2n(c1=O)CCN(c1cccc3cc(C(=O)N4CCCCC4)ccc13)C2 [compound 74] | < 3 nM |
| Cn1nc2n(c1=O)CCN(c1cccc3cc(C(=O)N4CCC(F)(F)CC4)ccc13)C2 [compound 75] | < 3 nM |
| Cc1ccc2c(n1)CCN(c1cccc3cc(C(=O)N4CCCCC4)ccc13)C2 [compound 77] | < 3 nM |

Now from value to molecule:

| IC50 | Structure (SMILES) |
| --- | --- |
| < 3 nM | CN1Cc2cc(-c3cccc4cc(C(=O)N5CCC(F)(F)CC5)ccc34)ccc2C1=O [compound 1] |
| < 3 nM | CC1c2cc(-c3cccc4cc(C(=O)N5CCC(F)(F)CC5)ccc34)ccc2C(=O)N1C (stereo not shown) [compound 10] |
| 3 to 10 nM | Cc1c(-c2cccc3cc(C(=O)N4CCC(F)(F)CC4)ccc23)ccc2ncccc12 [compound 13] |
| < 3 nM | Cn1ccc2cc(-c3cccc4cc(C(=O)N5CCC(F)(F)CC5)ccc34)cnc2c1=O [compound 15] |
| < 3 nM | Cn1ncc2cc(-c3cccc4cc(C(=O)N5CCC(F)(F)CC5)ccc34)cnc2c1=O [compound 17] |
| < 3 nM | O=C(c1ccc2c(-c3ccn4c(=O)ccnc4c3)cccc2c1)N1CCC(F)(F)CC1 [compound 18] |
| < 3 nM | O=C1NCc2cc(-c3cccc4cc(C(=O)N5CCC(F)(F)CC5)ccc34)ccc21 [compound 24] |
| < 3 nM | O=C(c1ccc2c(-c3ccn4c(=O)[nH]nc4c3)cccc2c1)N1CCC(F)(F)CC1 [compound 26] |
| < 3 nM | CN1C(=O)c2ccc(-c3cccc4cc(C(=O)N5CCC(F)(F)CC5)ccc34)cc2C1(C)C [compound 27] |
| < 3 nM | O=C(c1ccc2c(-c3ccc4c(c3)CN(CCO)C4=O)cccc2c1)N1CCC(F)(F)CC1 [compound 30] |
| < 3 nM | CN1Cc2nc(-c3cccc4cc(C(=O)N5CCC(F)(F)CC5)ccc34)ccc2C1=O [compound 32] |
| < 3 nM | Cn1c(=O)[nH]c(=O)c2ccc(-c3cccc4cc(C(=O)N5CCC(F)(F)CC5)ccc34)cc21 [compound 33] |
| < 3 nM | CN1Cc2cc(-c3cccc4cc(C(=O)N5CCCCC5)ccc34)ccc2C1=O [compound 37] |
| < 3 nM | Cn1cnc2cc(-c3cccc4cc(C(=O)N5CCC(F)(F)CC5)ccc34)ccc2c1=O [compound 38] |
| 3 to 10 nM | O=C(c1ccc2c(-c3ccc4c(c3)CN(CC3CC(F)(F)C3)C4=O)cccc2c1)N1CCC(F)(F)CC1 [compound 40] |
| < 3 nM | NC(=O)c1ccc(-c2cccc3cc(C(=O)N4CCC(F)(F)CC4)ccc23)cc1F [compound 41] |
| < 3 nM | CN1Cc2cc(-c3ccnc4cc(C(=O)N5CCC(F)(F)CC5)ccc34)ccc2C1=O [compound 42] |
| < 3 nM | CN1Cc2cc(-c3cccc4cc(C(=O)N5CCCC5)ccc34)ccc2C1=O [compound 43] |

| IC50 | Structure (SMILES) |
| --- | --- |
| < 3 nM | COC(=O)CN1Cc2cc(-c3cccc4cc(C(=O)N5CCC(F)(F)CC5)ccc34)ccc2C1=O [compound 44] |
| < 3 nM | COCn1ncc2cc(-c3cccc4cc(C(=O)N5CCC(F)(F)CC5)ccc34)ccc2c1=O [compound 45] |
| 3 to 10 nM | Cc1cc(C(N)=O)ccc1-c1cccc2cc(C(=O)N3CCC(F)(F)CC3)ccc12 [compound 53] |
| < 3 nM | CN1Cc2cc(-c3cccc4cc(C(=O)N5CCCC(F)(F)C5)ccc34)ccc2C1=O [compound 54] |
| < 3 nM | O=C(c1ccc2c(-c3ccc4c(c3)CN(CC3CC3)C4=O)cccc2c1)N1CCC(F)(F)CC1 [compound 55] |
| 3 to 10 nM | CNC(=O)c1ccc(-c2cccc3cc(C(=O)N4CCC(F)(F)CC4)ccc23)cc1F [compound 56] |
| < 3 nM | O=C(c1ccc2c(-c3cnc4c(=O)[nH]ncc4c3)cccc2c1)N1CCC(F)(F)CC1 [compound 57] |
| < 3 nM | C[C@@H]1CCN(C(=O)c2ccc3c(-c4ccc5c(c4)CN(C)C5=O)cccc3c2)C1 [compound 58] |
| < 3 nM | CN1Cc2cc(-c3c(F)ccc4cc(C(=O)N5CCC(F)(F)CC5)ccc34)ccc2C1=O [compound 59] |
| < 3 nM | Cn1nc2cc(-c3cccc4cc(C(=O)N5CCC(F)(F)CC5)ccc34)ccn2c1=O [compound 65] |
| < 3 nM | CCN1Cc2cc(-c3cccc4cc(C(=O)N5CCC(F)(F)CC5)ccc34)ccc2C1=O [compound 66] |
| < 3 nM | O=C(c1ccc2c(-c3cnc4c(=O)[nH]ccc4c3)cccc2c1)N1CCC(F)(F)CC1 [compound 67] |
| < 3 nM | O=C(O)c1ccc(-c2cccc3cc(C(=O)N4CCC(F)(F)CC4)ccc23)cc1F [compound 68] |
| < 3 nM | O=C(c1ccc2c(-c3ccc4c(ccc[n+]4[O-])c3)cccc2c1)N1CCC(F)(F)CC1 [compound 71] |
| ≥ 10 nM | CN1Cc2cc(-c3ccc4cc(C(=O)N5CCC(F)(F)CC5)ccc4c3)ccc2C1=O [compound 73] |
| < 3 nM | O=C(c1ccc2c(-c3ccc4ncccc4c3)cccc2c1)N1CCC(F)(F)CC1 [compound 76] |
| < 3 nM | CN1Cc2cc(-c3cccc4cc(C(=O)N5CCC(F)(F)CC5)ccc34)cnc2C1=O [compound 78] |
